Consider six compounds from paper PMC7692923, “Co-Ingestion of Black Carrot and Strawberry. Effects on Anthocyanin Stability, Bioaccessibility and Uptake” (Foods, 2020).

Common to all, as to type: in vitro ADME
Data set [1] is described as follows: Gastric stability of anthocyanins in extracts, standardized in vitro digestion (simulated gastric fluid, pepsin, pH 3.0). To be noted: for Gastric stability: % of undigested. The protocol:
(§1) A standardized in vitro digestion procedure was applied to each sample [20]. For the gastric phase, 7.5 mL of a simulated gastric fluid (in mM: KCl 6.9, KH2PO4 0.9, NaHCO3 25, NaCl 47.2, MgCl2(H2O) 0.1, (NH4)2CO3 0.5, pH 3.0), 5 µL of CaCl2 (0.3 M) and 1.6 mL of porcine pepsin solution (25,000 U/mL) were added and the pH of was adjusted to 3.0 using HCl (1 M). Demineralized water was added to the gastric chyme to complete a volume of 20 mL. Nitrogen was flushed into the headspace of the tubes before incubation at 37 °C during 2 h in the dark, while end-over-end rotation (40 rpm). For the intestinal phase simulation, the gastric chyme was mixed with 11 mL of simulated intestinal fluid (in mM: KCl 6.8, KH2PO4 0.8, NaHCO3 85, NaCl 38.4, MgCl2(H2O) 0.33, pH 7.0), 40 µL of CaCl2, 5 mL of pancreatin solution (800 U/mL based on trypsin activity) and 2.5 mL of bile solution (160 mM). NaOH (1 M) was used to adjust the pH to 7 and water to complete the volume until 40 mL. Prior to incubation in the dark, at 37 °C, 2 h, end-over-end rotation, the headspace of the tubes was flushed with nitrogen.
(§2) Aliquots from gastric and intestinal digests were sampled along black carrot and strawberry extracts digestion, stabilized by acidification with formic acid and stored at −20 °C until further analysis. Stability (%) was calculated as indicated by Equations (1) and (2). (1) Gastric stability (%)=(anthocyanin (mg·100 mL^−1) after gastric digestion)/(anthocyanin (mg·100 mL^−1) before digestion)×100 (2) Intestinal stability (%)=(anthocyanin (mg·100 mL^−1) after intestinal digestion)/(anthocyanin (mg·100 mL^−1) before digestion)×100

Data set [2] in a line: Intestinal stability of anthocyanins in extracts, standardized in vitro digestion (simulated intestinal fluid, pancreatin, bile, pH 7). To be noted: for Intestinal stability: % of undigested; for Post-Intestinal concentration: mean ± SD n = 3. The protocol:
as §1, §2

A short description of data set [3]: In vitro bioaccessibility after digestion of matrix-containing powder. To be noted: for Post-digestion concentration (bioaccessible fraction): mean ± SD n = 3. The protocol: as §1
After digestion of the powdered samples, an ultracentrifugation (Beckman L7 ultracentrifuge, Palo, Alto, CA, USA) at 165,000× g, 4 °C, 65 min, was performed to separate soluble and non-soluble fractions. The supernatant, containing the bioaccessible anthocyanins, was isolated. For the determination of anthocyanins, the digest was acidified with formic acid (1%) to stabilize the compounds, prior to the quantification by high performance liquid chromatography (HPLC). Results are shown as the ratio of the bioaccessible compound concentration to the initial compound concentration in the sample, as indicated in Equation (3). (3) Bioaccessibility (%)=(anthocyanin (mg.100 g^−1) after digestion)/(anthocyanin (mg.100 g^−1) before digestion)×100

Where [4] appears, read: co-digestion of black carrot and strawberry extracts.
[5] abbreviates: co-digestion of black carrot and strawberry extracts, mean ± SD n = 3.
[6] abbreviates: single digestion, liquid extract, 2 h 37 °C pH 3.0, mean ± SD n = 3.
The mark [7] stands for this setting: single digestion, liquid extract.
Setting [8] is: single digestion, liquid extract, pH 7, 2 h 37 °C.
Setting [9] is: co-digestion of black carrot and strawberry powder.
The mark [10] stands for this setting: single digestion, matrix-containing powder.

As to `O=C(/C=C/c1ccc(O)cc1)OC[C@H]1O[C@@H](OC[C@H]2O[C@@H](Oc3cc4c(O)cc(O)cc4[o+]c3-c3ccc(O)c(O)c3)[C@H](O[C@@H]3OC[C@@H](O)[C@H](O)[C@H]3O)[C@@H](O)[C@H]2O)[C@H](O)[C@@H](O)[C@@H]1O` [Cyanidin-3-xylosyl-coumaroyl-glucosyl-galactoside], the Gastric stability is recorded as 66% in data set [1] (setting [4]) and 65% in data set [1] (setting [7]). The values for the Post-Gastric concentration in data set [1] (setting [5]) and in data set [1] (setting [6]) were 1.16 ± 0.02 mg/100 mL of extract and 1.14 ± 0.01 mg/100 mL of extract, respectively. Also, the Intestinal stability in data set [2] (setting [4]) is on record as 42%; in data set [2] (setting [7]) it was 48%. Besides, the Post-Intestinal concentration in data set [2] (setting [4]) is given as 0.75 ± 0.04 mg/100 mL of extract; in data set [2] (setting [8]), 0.85 ± 0.07 mg/100 mL of extract. Moreover, the figures for the Bioaccessibility in data set [3] (setting [9]) and in data set [3] (setting [10]) were 52% and 28%, respectively. Besides, the “Post-digestion concentration (bioaccessible fraction)” value in data set [3] (setting [9]) was 105.2 ± 0.9 mg/100 g of sample (dry weight); in data set [3] (setting [10]), 55.8 ± 5.2 mg/100 g of sample (dry weight).
In the case of `COc1cc(/C=C/C(=O)OC[C@H]2O[C@@H](OC[C@H]3O[C@@H](Oc4cc5c(O)cc(O)cc5[o+]c4-c4ccc(O)c(O)c4)[C@H](O[C@@H]4OC[C@@H](O)[C@H](O)[C@H]4O)[C@@H](O)[C@H]3O)[C@H](O)[C@@H](O)[C@@H]2O)ccc1O` [Cyanidin-3-xylosyl-feruloyl-glucosyl-galactoside], the Gastric stability in data set [1] (setting [4]) and in data set [1] (setting [7]) was 86% in each case. Moreover, the Post-Gastric concentration is 8.28 ± 0.03 mg/100 mL of extract in data set [1] (setting [5]) and 8.23 ± 0.04 mg/100 mL of extract in data set [1] (setting [6]). The Intestinal stability in data set [2] (setting [4]) was 60%; in data set [2] (setting [7]), 58%. For the same compound, the figures for the Post-Intestinal concentration in data set [2] (setting [4]) and in data set [2] (setting [8]) were 5.81 ± 0.03 mg/100 mL of extract and 5.54 ± 0.05 mg/100 mL of extract, respectively. Besides, the Bioaccessibility in data set [3] (setting [9]) is listed as 48%; in data set [3] (setting [10]) it was 34%. Moreover, the “Post-digestion concentration (bioaccessible fraction)” value is 528.3 ± 15.0 mg/100 g of sample (dry weight) in data set [3] (setting [9]) and 378.4 ± 26.1 mg/100 g of sample (dry weight) in data set [3] (setting [10]).
Consider `OC[C@H]1O[C@@H](Oc2cc3c(O)cc(O)cc3[o+]c2-c2ccc(O)c(O)c2)[C@H](O[C@@H]2OC[C@@H](O)[C@H](O)[C@H]2O)[C@@H](O)[C@H]1O` [Cyanidin-3-xylosyl-galactoside], for which the Gastric stability in data set [1] (setting [4]) is 83%; in data set [1] (setting [7]), 81%. Also, the values for the Post-Gastric concentration in data set [1] (setting [5]) and in data set [1] (setting [6]) were 0.98 ± 0.02 mg/100 mL of extract and 0.95 ± 0.00 mg/100 mL of extract, respectively. Further, the Intestinal stability in data set [2] (setting [4]) is recorded as 92%; in data set [2] (setting [7]), 79%. In addition, the Post-Intestinal concentration is 1.09 ± 0.01 mg/100 mL of extract in data set [2] (setting [4]) and 0.94 ± 0.01 mg/100 mL of extract in data set [2] (setting [8]). The Bioaccessibility in data set [3] (setting [9]) came out at 84%; in data set [3] (setting [10]) it was 33%. The “Post-digestion concentration (bioaccessible fraction)” value was 113.8 ± 0.2 mg/100 g of sample (dry weight) in data set [3] (setting [9]) and 44.1 ± 4.4 mg/100 g of sample (dry weight) in data set [3] (setting [10]).
`OC[C@H]1O[C@@H](OC[C@H]2O[C@@H](Oc3cc4c(O)cc(O)cc4[o+]c3-c3ccc(O)c(O)c3)[C@H](O[C@@H]3OC[C@@H](O)[C@H](O)[C@H]3O)[C@@H](O)[C@H]2O)[C@H](O)[C@@H](O)[C@@H]1O` [Cyanidin-3-xylosyl-glucosyl-galactoside]: the Gastric stability in data set [1] (setting [4]) is listed as 56%; in data set [1] (setting [7]), 59%. For the same compound, the Post-Gastric concentration in data set [1] (setting [5]) is on record as 0.24 ± 0.02 mg/100 mL of extract; in data set [1] (setting [6]) it was 0.25 ± 0.01 mg/100 mL of extract. Moreover, the Intestinal stability in data set [2] (setting [4]) is listed as 99%; in data set [2] (setting [7]) it was 86%. Further, the Post-Intestinal concentration is recorded as 0.42 ± 0.00 mg/100 mL of extract in data set [2] (setting [4]) and 0.36 ± 0.00 mg/100 mL of extract in data set [2] (setting [8]). Also, the Bioaccessibility is listed as 105% in data set [3] (setting [9]) and 62% in data set [3] (setting [10]). In addition, the “Post-digestion concentration (bioaccessible fraction)” value in data set [3] (setting [9]) is given as 50.5 ± 9.2 mg/100 g of sample (dry weight); in data set [3] (setting [10]), 29.7 ± 3.7 mg/100 g of sample (dry weight).
For the compound `OC[C@H]1O[C@@H](Oc2cc3c(O)cc(O)cc3[o+]c2-c2ccc(O)cc2)[C@H](O)[C@@H](O)[C@@H]1O` [Pelargonidin-3-glucoside], the Gastric stability is given as 76% in data set [1] (setting [4]) and 90% in data set [1] (setting [7]). Also, the values for the Post-Gastric concentration in data set [1] (setting [5]) and in data set [1] (setting [6]) were 12.63 ± 0.46 mg/100 mL of extract and 11.13 ± 0.09 mg/100 mL of extract, respectively. Besides, the values for the Intestinal stability in data set [2] (setting [4]) and in data set [2] (setting [7]) were 35% and 49%, respectively. The values for the Post-Intestinal concentration in data set [2] (setting [4]) and in data set [2] (setting [8]) were 5.78 ± 0.13 mg/100 mL of extract and 6.01 ± 0.02 mg/100 mL of extract, respectively. Further, the Bioaccessibility is 28% in data set [3] (setting [9]) and 36% in data set [3] (setting [10]). Further, the “Post-digestion concentration (bioaccessible fraction)” value is listed as 272.5 ± 19.7 mg/100 g of sample (dry weight) in data set [3] (setting [9]) and 256.6 ± 8.3 mg/100 g of sample (dry weight) in data set [3] (setting [10]).
Consider `O=C(O)CC(=O)OC[C@H]1O[C@@H](Oc2cc3c(O)cc(O)cc3[o+]c2-c2ccc(O)cc2)[C@H](O)[C@@H](O)[C@@H]1O` [Pelargonidin-3-malonyl-glucoside], for which the Gastric stability in data set [1] (setting [4]) was 92%; in data set [1] (setting [7]), 87%. For the same compound, the Post-Gastric concentration is given as 3.57 ± 0.07 mg/100 mL of extract in data set [1] (setting [5]) and 3.37 ± 0.01 mg/100 mL of extract in data set [1] (setting [6]). In addition, the Intestinal stability is given as 49% in data set [2] (setting [4]) and 46% in data set [2] (setting [7]). For the same compound, the Post-Intestinal concentration in data set [2] (setting [4]) is on record as 1.91 ± 0.02 mg/100 mL of extract; in data set [2] (setting [8]), 1.77 ± 0.01 mg/100 mL of extract. Further, the results for the Bioaccessibility in data set [3] (setting [9]) and in data set [3] (setting [10]) were 36% and 34%, respectively. Moreover, the “Post-digestion concentration (bioaccessible fraction)” value is reported as 81.3 ± 6.6 mg/100 g of sample (dry weight) in data set [3] (setting [9]) and 76.2 ± 1.8 mg/100 g of sample (dry weight) in data set [3] (setting [10]).
